Activity calls are given as the source filed them. No cut-off for these calls is given here.
Tests used:
[1] = Anti-hepatic fibrosis activity in human LX2 cells assessed as inhibition of COL1A1 promoter activity at 25 micromol/L by luciferase reporter assay relative to control; type: functional; conditions: LX-2, dose 25 µmol/L
LX-2 [2] = test: Anti-hepatic fibrosis activity in human LX2 cells assessed as inhibition of TGFbeta1-induced COL1A1 protein expression at 3 uM incubated for 24 hrs by western blot analysis; type: functional, cell-based
LX-2 [3] = test: Anti-hepatic fibrosis activity in human LX2 cells assessed as inhibition of TGFbeta1-induced alpha-SMA protein expression at 3 uM incubated for 24 hrs by western blot analysis; type: functional, cell-based
LX-2 [4] = test: Anti-hepatic fibrosis activity in human LX2 cells assessed as inhibition of TGFbeta1-induced TIMP-1 protein expression at 3 uM incubated for 24 hrs by western blot analysis; type: functional, cell-based
LX-2 [5] = test: Anti-hepatic fibrosis activity in human LX2 cells assessed as inhibition of TGFbeta1-induced FN protein expression at 3 uM incubated for 24 hrs by western blot analysis; type: functional, cell-based
LX-2 [6] = test: Anti-hepatic fibrosis activity in human LX2 cells assessed as inhibition of TGF-beta1 induced COL1A1 mRNA expression at 3 micromol/L incubated for 24 hrs by qPCR analysis; type: functional, cell-based; conditions: dose 3.0 µmol/L
[7] = Inhibition of JAK1/STAT1/STAT3 signaling pathway in human LX2 cells assessed as decrease in TGF-beta induced STAT1 phosphorylation level at 1 uM incubated for 24 hrs by Western blot analysis; type: cell-based
[8] = Inhibition of JAK1/STAT1/STAT3 signaling pathway in human LX2 cells assessed as decrease in TGF-beta induced STAT3 phosphorylation level at 1 uM incubated for 24 hrs by Western blot analysis; type: cell-based
AML12 = test: Cytotoxicity against mouse AML12 cells assessed as mortality rate at 1 to 30 uM incubated for 24 hrs by Sulfonyl Rhodamine B assay; type: toxicity, cell-based; conditions: aml12, 24 h, dose 1-30 µM
[9] = Inhibition of JAK1/STAT1/STAT3 signaling pathway in human LX2 cells assessed as decrease in TGF-beta induced JAK1 phosphorylation level at 1 uM incubated for 24 hrs by Western blot analysis; type: cell-based
[10] = Cytotoxicity against human LX2 cells assessed as mortality rate at 1 to 30 uM incubated for 24 hrs by Sulfonyl Rhodamine B assay; type: toxicity, cell-based; conditions: lx-2, 24 h, dose 1-30 µM
LX-2 [11] = test: Anti-hepatic fibrosis activity in human LX2 cells assessed as inhibition of TGFbeta1-induced COL1A1 protein expression at 1 uM incubated for 24 hrs by western blot analysis; type: functional, cell-based
LX-2 [12] = test: Anti-hepatic fibrosis activity in human LX2 cells assessed as inhibition of TGFbeta1-induced TIMP-1 protein expression at 1 uM incubated for 24 hrs by western blot analysis; type: functional, cell-based
LX-2 [13] = test: Anti-hepatic fibrosis activity in human LX2 cells assessed as inhibition of TGFbeta1-induced alpha-SMA protein expression at 1 uM incubated for 24 hrs by western blot analysis; type: functional, cell-based
LX-2 [14] = test: Anti-hepatic fibrosis activity in human LX2 cells assessed as inhibition of TGF-beta1 induced intrinsic TGF-beta1 mRNA expression at 3 micromol/L incubated for 24 hrs by qPCR analysis; type: functional, cell-based; conditions: dose 3.0 µmol/L
LX-2 [15] = test: Anti-hepatic fibrosis activity in human LX2 cells assessed as inhibition of TGF-beta1 induced MMP-2 mRNA expression at 3 micromol/L incubated for 24 hrs by qPCR analysis; type: functional, cell-based; conditions: dose 3.0 µmol/L
LX-2 [16] = test: Anti-hepatic fibrosis activity in human LX2 cells assessed as inhibition of TGFbeta1-induced FN protein expression at 1 uM incubated for 24 hrs by western blot analysis; type: functional, cell-based

Compound	inhibition at 25 µM [1] [%]	further results
O=C(Nc1ccccc1NS(=O)(=O)c1cccc([N+](=O)[O-])c1)c1cc(Cl)ccc1Cl	24.6	–
O=S(=O)(Nc1ccccc1CNc1cc(Cl)c(Cl)c(Cl)c1)c1cccc(C(F)(F)F)c1	37.3	–
O=C(Nc1cc(C(F)(F)F)ccc1Cl)Nc1ccccc1NS(=O)(=O)c1ccc([N+](=O)[O-])cc1	39.4	–
O=C(Nc1ccc(Cl)cc1)Nc1ccccc1NS(=O)(=O)c1ccc([N+](=O)[O-])cc1	23.6	–
O=C(Nc1cccc(C(F)(F)F)c1)Nc1ccccc1NS(=O)(=O)c1cccc([N+](=O)[O-])c1	22.8	–
O=C(Nc1ccccc1NS(=O)(=O)c1ccc([N+](=O)[O-])cc1)c1cc(Cl)ccc1Cl	26.5	–
C=C1C(=O)O[C@@H]2/C=C(\C)CC/C=C(\C)CC[C@@H]12 [COSTUNOLIDE]	45.4	–
O=[N+]([O-])c1cccc(S(=O)(=O)Nc2ccccc2CNc2ccc(F)c(Cl)c2)c1	24.1	–
Cc1ccc(S(=O)(=O)Nc2ccccc2CNc2cc(Cl)c(Cl)c(Cl)c2)cc1	3.4	–
COc1ccc(NC(=O)Nc2ccccc2NS(=O)(=O)c2ccc([N+](=O)[O-])cc2)cc1	14.5	–
COc1cccc(NCc2ccccc2NS(=O)(=O)c2cccc([N+](=O)[O-])c2)c1	23.2	–
Cc1cccc(S(=O)(=O)Nc2ccccc2NC(=O)c2cc(Cl)c(Cl)c(Cl)c2)c1	15.3	–
O=[N+]([O-])c1cccc(S(=O)(=O)Nc2ccccc2CNc2cc(F)ccc2Cl)c1	29.8	–
O=[N+]([O-])c1ccc(S(=O)(=O)Nc2ccccc2CNc2cc(F)ccc2Cl)cc1	26	inhibition (LX-2 [2]): Active; inhibition (LX-2 [3]): Active; inhibition (LX-2 [4]): Active; inhibition (LX-2 [5]): Active
O=S(=O)(Nc1ccccc1CNc1cc(Cl)c(Cl)c(Cl)c1)c1cccc(Cl)c1	33.4	–
COc1ccc(C(F)(F)F)cc1NC(=O)Nc1ccccc1NS(=O)(=O)c1ccc([N+](=O)[O-])cc1	21.5	–
O=S(=O)(Nc1ccccc1CNc1cc(Cl)c(Cl)c(Cl)c1)c1ccc(C(F)(F)F)cc1	42.4	–
O=C(Nc1ccccc1NS(=O)(=O)c1cccc([N+](=O)[O-])c1)c1ccc(Cl)c(Cl)c1	30.9	–
COc1ccc(NC(=O)Nc2ccccc2NS(=O)(=O)c2cccc([N+](=O)[O-])c2)cc1	25.4	–
O=C(Nc1ccc(Cl)c(Cl)c1)Nc1ccccc1NS(=O)(=O)c1cccc([N+](=O)[O-])c1	21.6	–
O=S(=O)(Nc1ccccc1CNc1cc(Cl)c(Cl)c(Cl)c1)c1ccc(OC(F)(F)F)cc1	42.4	–
O=C(Nc1ccc(C(F)(F)F)cc1)Nc1ccccc1NS(=O)(=O)c1ccc([N+](=O)[O-])cc1	21.3	–
O=C(Nc1ccc(Cl)cc1)Nc1ccccc1NS(=O)(=O)c1cccc([N+](=O)[O-])c1	21.9	–
O=C(Nc1ccc(Cl)c(Cl)c1)Nc1ccccc1NS(=O)(=O)c1ccc([N+](=O)[O-])cc1	28.5	inhibition (LX-2 [6]): Active
COc1ccc(S(=O)(=O)Nc2ccccc2CNc2cc(Cl)c(Cl)c(Cl)c2)cc1	1.2	–
Cc1cccc(S(=O)(=O)Nc2ccccc2NC(=O)Nc2cc(Cl)c(Cl)c(Cl)c2)c1	24.9	–
Cc1ccc(NCc2ccccc2NS(=O)(=O)c2cccc([N+](=O)[O-])c2)cc1	14.7	–

Compound	inhibition at 25 µM [1] [%]	further results
COc1cccc(S(=O)(=O)Nc2ccccc2NC(=O)Nc2cc(Cl)c(Cl)c(Cl)c2)c1	16.9	–
O=C(Nc1ccc(C(F)(F)F)cc1)Nc1ccccc1NS(=O)(=O)c1cccc([N+](=O)[O-])c1	17.8	–
O=[N+]([O-])c1ccc(S(=O)(=O)Nc2ccccc2CNc2cc(Cl)c(Cl)c(Cl)c2)cc1	48.7	inhibition (LX-2 [2]): Active; inhibition (LX-2 [3]): Active; inhibition (LX-2 [6]): Active; inhibition (LX-2 [4]): Active; inhibition (LX-2 [5]): Active
O=S(=O)(Nc1ccccc1CNc1cc(Cl)c(Cl)c(Cl)c1)c1ccc(Cl)cc1	31.7	–
O=C(Nc1ccc(Cl)cc1Cl)Nc1ccccc1NS(=O)(=O)c1cccc([N+](=O)[O-])c1	29.8	–
Cc1cccc(S(=O)(=O)Nc2ccccc2CNc2cc(Cl)c(Cl)c(Cl)c2)c1	2.2	–
O=C(Nc1ccccc1NS(=O)(=O)c1ccc([N+](=O)[O-])cc1)c1ccc(Cl)c(Cl)c1	49.3	inhibition (LX-2 [2]): Active; inhibition (LX-2 [3]): Active; inhibition (LX-2 [6]): Active; inhibition (LX-2 [4]): Active; inhibition (LX-2 [5]): Active
COc1ccc(C(=O)Nc2ccccc2NS(=O)(=O)c2cccc([N+](=O)[O-])c2)cc1	33.6	–
O=[N+]([O-])c1cccc(S(=O)(=O)Nc2ccccc2CNc2cc(Cl)c(Cl)c(Cl)c2)c1	42.3	inhibition (LX-2 [6]): Active
O=C(Nc1cccc(C(F)(F)F)c1)Nc1ccccc1NS(=O)(=O)c1ccc([N+](=O)[O-])cc1	22.9	–
O=[N+]([O-])c1cccc(S(=O)(=O)Nc2ccccc2CNc2cc(Cl)ccc2Cl)c1	40	–
COc1cccc(S(=O)(=O)Nc2ccccc2CNc2cc(Cl)c(Cl)c(Cl)c2)c1	11.9	–
O=C(Nc1ccccc1NS(=O)(=O)c1cccc([N+](=O)[O-])c1)c1ccc(F)c(Cl)c1	37.1	–
O=C(O[C@@H]1Cc2c(O)cc(O)cc2O[C@@H]1c1cc(O)c(O)c(O)c1)c1cc(O)c(O)c(O)c1 [EPIGALOCATECHIN GALLATE]	25.3	–
O=C(Nc1ccccc1NS(=O)(=O)c1ccc([N+](=O)[O-])cc1)c1ccc(Cl)cc1Cl	33	–
O=C(Nc1cc(Cl)c(Cl)c(Cl)c1)c1ccccc1NS(=O)(=O)c1cccc([N+](=O)[O-])c1	35.9	inhibition [7]: Active; inhibition [8]: Active; Activity (AML12): Non-Toxic; inhibition (LX-2 [6]): Active; inhibition [9]: Active; Activity [10]: Non-Toxic
CC[C@H]1[C@@H](O)[C@@H]2[C@H](CC[C@]3(C)[C@@H]([C@H](C)CCC(=O)O)CC[C@@H]23)[C@@]2(C)CC[C@@H](O)C[C@@H]12 [OBETICHOLIC ACID]	7.9	–
O=C(Nc1ccc(Cl)cc1Cl)Nc1ccccc1NS(=O)(=O)c1ccc([N+](=O)[O-])cc1	25.8	–
COc1ccc(C(F)(F)F)cc1NC(=O)Nc1ccccc1NS(=O)(=O)c1cccc([N+](=O)[O-])c1	20.2	–
O=[N+]([O-])c1ccc(S(=O)(=O)Nc2ccccc2CNc2ccc(F)c(Cl)c2)cc1	34.2	–
O=S(=O)(Nc1ccccc1CNc1cc(Cl)c(Cl)c(Cl)c1)c1cccc(OC(F)(F)F)c1	33.5	–
COc1cccc(S(=O)(=O)Nc2ccccc2NC(=O)c2cc(Cl)c(Cl)c(Cl)c2)c1	1.5	–
O=C(Nc1cc(C(F)(F)F)ccc1Cl)Nc1ccccc1NS(=O)(=O)c1cccc([N+](=O)[O-])c1	21.3	–
O=C(Nc1ccc(Cl)cc1Cl)Nc1ccccc1NS(=O)(=O)c1cccc(OC(F)(F)F)c1	26.2	–
O=C(Nc1ccccc1NS(=O)(=O)c1cccc([N+](=O)[O-])c1)c1ccc(Cl)cc1Cl	27.9	–
O=[N+]([O-])c1ccc(S(=O)(=O)Nc2ccccc2CNc2cc(Cl)ccc2Cl)cc1	32.3	inhibition (LX-2 [2]): Active; inhibition (LX-2 [3]): Active; inhibition (LX-2 [6]): Active; inhibition (LX-2 [4]): Active; inhibition (LX-2 [5]): Active
O=C(Nc1ccccc1NS(=O)(=O)c1cccc(C(F)(F)F)c1)c1cc(Cl)c(Cl)c(Cl)c1	60.7	inhibition (LX-2 [11]): Active; inhibition [7]: Active; inhibition (LX-2 [12]): Active; inhibition (LX-2 [13]): Active; inhibition (LX-2 [14]): Active; inhibition [8]: Active; inhibition (LX-2 [15]): Active; inhibition (LX-2 [16]): Active; Activity (AML12): Non-Toxic; inhibition (LX-2 [6]): Active; inhibition [9]: Active; Activity [10]: Non-Toxic

From ChEMBL document CHEMBL5257100, “Discovery and development of benzene sulfonamide derivatives as anti-hepatic fibrosis agents” (Bioorg Med Chem Lett, 2023)
